BindingDB's records for patent US10882866 (Boehringer Ingelheim International GmbH, 2021)

Target: T1, E3 ubiquitin-protein ligase Mdm2 [23-117] (Human, UniProt Q00987)
T1 construct: 23-117
Experiment: Inhibition AlphaScreen Assay
Procedure: A mix consisting of 20 nM GST-MDM2 protein (aa 23-117) and 20 nM biotinylated p53 wt peptide (encompassing aa 16-27 of wt human p53, amino acid sequence QETFSDLWKLLP-Ttds-Lys-Biotin, molecular weight 2132.56 g/mol) is prepared in assay buffer (50 mM Tris/HCl pH 7.2; 120 mM NaCl; 0.1% bovine serum albumin (BSA); 5 mM dithiothreitol (DTT); 1 mM ethylenediaminetetraacetic acid (EDTA); 0.01% Tween 20). 30 μL of the mix is added to the compound dilutions and incubated for 15 min at rt while gently shaking the plate at 300 rounds per minute (rpm). Subsequently, 15 μL of premixed AlphaLISA Glutathione Acceptor Beads and AlphaScreen Streptavidin Donor Beads from PerkinElmer (in assay buffer at a concentration of 10 μg/mL each) are added and the samples are incubated for 30 min at rt in the dark (shaking 300 rpm). Afterwards, the signal is measured in a PerkinElmer Envision HTS Multilabel Reader using the AlphaScreen protocol from PerkinElmer.Each plate contains negative controls where biotinylated p53-peptide and GST-MDM2 are left out and replaced by assay buffer. Negative control values are entered as low basis value when using the software GraphPad Prism for calculations.

T1 sequence (Q00987 23-117): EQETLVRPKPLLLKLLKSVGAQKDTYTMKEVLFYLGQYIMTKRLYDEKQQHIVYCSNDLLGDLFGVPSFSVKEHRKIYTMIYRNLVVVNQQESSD

IC50: 10 nM
SMILES: O=C(O)c1ccc2c(c1)nc1n2CC[C@H]2[C@@H]1[C@H](c1cccc(Cl)c1F)[C@]1(C(=O)Nc3cc(Cl)ccc31)N2CC1CC1 [US10882866, Example Ib-171]
